Here are results for two molecules from patent US12459894B2, “Orally active melanocortin receptor-4 compounds” (Palatin Technologies, Inc., priority 2018, dated 2025).

Marks after values point to notes of the source that are not given here.

Assay [1] deals with T1, MC4r (Homo sapiens, UniProt P32245). The assay is described as follows: Functional cAMP study in human MC4r expression system approximating maximal physiologic receptor densities. On the set-up: host or cells: TREx-293 transfected with pcDNA4/TO/MC4R. It counts as cell-based. How it is done: Assay for Agonist Activity. Accumulation of intracellular cAMP was examined as a measure of the ability of the peptides of the present invention to elicit a functional response in HEK-293 cells that express MC4-R. Confluent HEK-293 cells that express recombinant hMC4-R were detached from culture plates by incubation in enzyme-free cell dissociation buffer. Dispersed cells were suspended in Hanks' Balanced Salt Solution containing 10 mM HEPES (pH 7.5), 1 mM MgCl2, 1 mM glutamine, 0.5% albumin and 0.3 mM 3-isobutyl-1-methyl-xanthine (IBMX), a phosphodiesterase inhibitor. The cells were plated in 96-well plates at a density of 0.5×10^5 cells per well and pre-incubated for 10 minutes. Cells were exposed for 15 minutes at 37° C. to peptides of the present invention dissolved in DMSO (final DMSO concentration of 1%) at a concentration range of 0.05-5000 nM in a total assay volume of 200 μL. NDP-α-MSH was used as the reference agonist. cAMP levels were determined by an HTRF® cAMP cell-based assay system from Cisbio Bioassays utilizing cryptate-labeled anti-cAMP and d2-labeled cAMP, with plates read on a Perkin-Elmer Victor plate reader at […]. Data analysis was performed by nonlinear regression analysis with Graph-Pad Prism® software. The maximum efficacies of the test peptides of the present invention were compared to that achieved by the reference melanocortin agonist NDP-αMSH. […]

Assay [2] deals with T1, MC4r. Put plainly: Competitive inhibition binding assay, MC4r. Also on record: expressed in transfected cells; host or cells: HEK-293 (membrane homogenates). Conditions: binding studies. How it is done:
A competitive inhibition binding assay is performed using membrane homogenates prepared from HEK-293 cells that express recombinant hMC1ra, hMC4r, hMC3r, or hMC5r, and from B16-F10 mouse melanoma cells (containing endogenous MC1r). In the examples that follow, all values are for human recombinant receptors unless otherwise noted. Assays are performed in 96 well GF/B Millipore multiscreen filtration plates (MAFB NOB10) pre-coated with 0.5% bovine serum albumin (Fraction V). […] After incubation for 60 to 90 minutes at 37° C., the assay mixture is filtered and the membranes washed three times with ice-cold buffer. Filters are dried and counted in a gamma counter for bound radioactivity.
Maximal specific binding (100%) is defined as the difference in radioactivity (cpm) bound to cell membranes in the absence and presence of 1 μM NDP-α-MSH. […] Each assay is conducted in duplicate or triplicate and the actual mean values are described, with results less than 0% reported as 0%. Ki values for test compounds are determined using Graph-Pad Prism® curve-fitting software.
Competitive Binding Assay Using Eu-NDP-α-MSH. […] The plates were incubated on a shaker for 15 minutes and read at 340 nm excitation and 615 nm emission wavelengths. […] Ki values were determined by curve-fitting with Graph-Pad Prism® software using a one-site fixed-slope competition binding model.

The next assay relates to C57BL/6 male DIO mice. Put plainly: Body weight and food intake in vivo study in diet induced obese (DIO) mice. Also on record: species or system mouse. To be noted: for Body Weight Change (%) Mean / Food Intake - 24 Hours (g) Mean: 1 mg/kg subcutaneous twice daily. How it is done: Compound 7.1 was assessed in a body weight and food intake in vivo study in diet induced obese (DIO) mice. C57BL/6 male DIO mice were utilized, that were 17 weeks of age on arrival. Animals were pre-conditioned on a high-fat diet for 11 weeks by Jackson Labs. […] Animals were single housed within a limited access rodent facility, and provided ad libitum with a commercial rodent diet and free access to drinking water. Animals were randomized into five groups, a vehicle group, three dose levels of compound 7.1 (3 mg/kg, 10 mg/kg and 30 mg/kg), and Peptide A, a positive control cyclic peptide of the formula Ac-Arg-cyclo(Om-Asn-D-Phe-Arg-Trp-Glu)-NH2. Following three days of sham dosing, animals were dosed for three days, with vehicle or Compound 7.1 dosed orally once daily at within one hour of lights out in the AM, and Peptide A dosed by subcutaneous injection twice daily within one hour before lights out and six hours after lights out. Body weights were measured one hour prior to lights out, and feed weights were measured both one hour prior to lights out and six hours post lights out.
• *p<0.05 vs. sham (vehicle control) using two-way ANOVA followed by Dunnett's post-test. • **p<0.01 vs sham (vehicle control) using two-way ANOVA followed by Dunnett's post-test.

T1 sequence (P32245 whole entry): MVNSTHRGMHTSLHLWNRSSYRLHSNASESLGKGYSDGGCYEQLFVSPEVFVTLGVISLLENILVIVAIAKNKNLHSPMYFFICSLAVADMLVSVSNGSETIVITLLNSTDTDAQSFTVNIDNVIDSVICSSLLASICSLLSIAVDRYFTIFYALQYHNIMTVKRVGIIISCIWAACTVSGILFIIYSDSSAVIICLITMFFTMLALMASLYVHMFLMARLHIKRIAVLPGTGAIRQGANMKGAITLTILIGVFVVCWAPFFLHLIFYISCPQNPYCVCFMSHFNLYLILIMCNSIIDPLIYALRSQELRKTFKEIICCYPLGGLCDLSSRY

The EC50 is the concentration at which the effect is half-maximal. A lower EC50 goes with higher potency in that assay. The term Ki denotes the equilibrium dissociation constant of an inhibitor or competing ligand from its target. The low end stands for tighter binding, the high end for weaker binding. Regarding `CNC(C)(C)C(=O)N[C@H](Cc1ccc(Cl)cc1)C(=O)N1CCN(N(CC(C)C)C2CCN(C(C)=O)CC2)CC1` [Compound 7.9, N-[(1R)-2-[4-[(1-acetyl-4-piperidyl)-isobutyl-amino]piperazin-1-yl]-1-[(4-chlorophenyl)methyl]-2-oxo-ethyl]-2-methyl-2-(methylamino)propanamide], the response on MC4r [1] was half-maximal at 5 nM (EC50). On MC4r [1] (read-out: relative efficacy, compared to NDP-α-MSH), the Emax stood at 19%. Further, the Ki at MC4r [2] turned out to be 5 nM.

For “Ac-Arg-cyclo(Om-Asn-D-Phe-Arg-Trp-Glu)-NH2 [Peptide A, reference compound]”, the “Body Weight Change (%) Mean” value with C57BL/6 male DIO mice (Day 0) is 0%; in the assay with C57BL/6 male DIO mice (Day 1) it was −5.69** %; in the assay on C57BL/6 male DIO mice (Day 2), −8.37** %; in the assay with C57BL/6 male DIO mice (Day 3), −8.78** %. For the same molecule, the “Food Intake - 24 Hours (g) Mean” value in the assay on C57BL/6 male DIO mice (Day 0, 24 hours post lights out) was 0.99** g; in the assay on C57BL/6 male DIO mice (Day 1, 24 hours post lights out), 1.10** g; in the assay with C57BL/6 male DIO mice (Day 2, 24 hours post lights out), 1.67** g. Moreover, in the assay on C57BL/6 male DIO mice (1 mg/kg, 24 hours post lights out, entirety of the study, vs sham), the “feed intake” value is reported as “significantly inhibited feed intake”. In addition, the “body weight” value in the assay with C57BL/6 male DIO mice (two times daily 1 mg/kg, throughout the study) was “decreased animal body weights”.
